From US10856562B2, “Flavor composition and edible compositions containing same” (MARS, INCORPORATED, priority 2013, dated 2020)
Square brackets hold non-standard residues; d marks the D form. Ends that are not written are not given here. pGlu = O=C1CC[C@@H](C(=O)O)N1

Test system: panelists
Assay: Attribute perception scores of flavor enhancers in solution (Example 6)
Type: in vivo, human
Design: key to Metallic / Numbing / Atringent / Salt / Sweet / Sour / Bitter / Umami / Sour, mean evaluation score in solution / Numbing, mean evaluation score in solution / Astringent / Umami FF: 15-point intensity scale, 0 = none, 15 = very strong
Settings: for Astringent / Bitter / Flinty/Mineral / Metallic / Numbing / Salt / Sour / Sweet / Umami / Umami FF / Atringent / Mineral/Flinty / Umami/brothy: solution
[1] = 10.0 ppb, mean evaluation score
[2] = 100.0 ppb, mean evaluation score
[3] = Concentration 1, MAX, 15-point scale
[4] = Concentration 1, MEAN, 15-point scale
[5] = Concentration 1, MIN, 15-point scale
[6] = Concentration 10, MAX, 15-point scale
[7] = Concentration 10, MEAN, 15-point scale
[8] = Concentration 10, MIN, 15-point scale
[9] = Concentration 100, MAX, 15-point scale
[10] = Concentration 100, MEAN, 15-point scale
[11] = Concentration 100, MIN, 15-point scale

Which “Patterns of attributes in solution as concentrations increase” value (1.0 to 100 ppb) does the source give for [pGlu]-Cys-Gly [FE-36] here?
The value was “No distinct patterns are seen”.

What about the Astringent (1.0 ppb, mean evaluation score) of the same substance?
Its Astringent is 0.0.

And the Bitter (1.0 ppb, mean evaluation score)?
Its Bitter is 0.0.

What about the Flinty/Mineral (1.0 ppb, mean evaluation score) of the same substance?
Its Flinty/Mineral is 0.7.

And the Metallic (1.0 ppb, mean evaluation score)?
The Metallic was 0.1.

And the Numbing (1.0 ppb, mean evaluation score)?
The Numbing was 0.0.

What about the Salt (1.0 ppb, mean evaluation score) of the same substance?
Its Salt is 2.6.

And the Sour (1.0 ppb, mean evaluation score)?
The Sour was 0.0.

What about the Sweet (1.0 ppb, mean evaluation score) of the same substance?
Its Sweet is 0.2.

What about the Umami (1.0 ppb, mean evaluation score) of the same substance?
Its Umami is 0.3.

And the “Umami FF” value (1.0 ppb, mean evaluation score)?
Its value is 1.5.

And the Astringent [1]?
Its Astringent is 0.0.

What about the Bitter [1] of the same substance?
The Bitter was 0.0.

And the Flinty/Mineral [1]?
Its Flinty/Mineral is 0.8.

And the Metallic [1]?
Its Metallic is 0.0.

And the Numbing [1]?
Its Numbing is 0.0.

And the Salt [1]?
Its Salt is 1.9.

And the Sour [1]?
Its Sour is 0.0.

And the Sweet [1]?
Its Sweet is 0.0.

And the Umami [1]?
The Umami was 0.1.

What about the “Umami FF” value [1] of the same substance?
The value was 0.9.

What about the Astringent [2] of the same substance?
The Astringent was 0.0.

What about the Bitter [2] of the same substance?
The Bitter was 0.0.

And the Flinty/Mineral [2]?
Its Flinty/Mineral is 0.8.

What about the Metallic [2] of the same substance?
The Metallic was 0.0.

And the Numbing [2]?
Its Numbing is 0.0.

What about the Salt [2] of the same substance?
Its Salt is 2.1.

What about the Sour [2] of the same substance?
Its Sour is 0.0.

And the Sweet [2]?
Its Sweet is 0.0.

And the Umami [2]?
The Umami was 0.0.

And the “Umami FF” value [2]?
The value was 1.6.

And the Atringent [3]?
Its Atringent is 0.0.

And the Bitter [3]?
Its Bitter is 0.0.

And the Metallic [3]?
The Metallic was 0.8.

And the Mineral/Flinty [3]?
Its Mineral/Flinty is 1.0.

What about the Numbing [3] of the same substance?
Its Numbing is 0.0.

What about the Salt [3] of the same substance?
The Salt was 3.0.

What about the Sour [3] of the same substance?
Its Sour is 0.0.

And the Sweet [3]?
Its Sweet is 1.0.

What about the Umami [3] of the same substance?
The Umami was 2.0.

What about the Umami/brothy [3] of the same substance?
The Umami/brothy was 1.0.

What about the Atringent [4] of the same substance?
Its Atringent is 0.0.

And the Bitter [4]?
The Bitter was 0.0.

What about the Metallic [4] of the same substance?
The Metallic was 0.1.

What about the Mineral/Flinty [4] of the same substance?
Its Mineral/Flinty is 0.7.

And the Numbing [4]?
Its Numbing is 0.0.

What about the Salt [4] of the same substance?
Its Salt is 2.6.

And the Sour [4]?
Its Sour is 0.0.

What about the Sweet [4] of the same substance?
Its Sweet is 0.2.

What about the Umami [4] of the same substance?
Its Umami is 1.5.

What about the Umami/brothy [4] of the same substance?
The Umami/brothy was 0.3.

And the Atringent [5]?
The Atringent was 0.0.

And the Bitter [5]?
Its Bitter is 0.0.

What about the Metallic [5] of the same substance?
Its Metallic is 0.0.

What about the Mineral/Flinty [5] of the same substance?
The Mineral/Flinty was 0.0.

What about the Numbing [5] of the same substance?
The Numbing was 0.0.

And the Salt [5]?
The Salt was 2.5.

And the Sour [5]?
The Sour was 0.0.

What about the Sweet [5] of the same substance?
Its Sweet is 0.0.

What about the Umami [5] of the same substance?
The Umami was 1.0.

And the Umami/brothy [5]?
The Umami/brothy was 0.0.

What about the Atringent [6] of the same substance?
Its Atringent is 0.0.

What about the Bitter [6] of the same substance?
The Bitter was 0.0.

What about the Metallic [6] of the same substance?
Its Metallic is 0.0.

What about the Mineral/Flinty [6] of the same substance?
The Mineral/Flinty was 1.5.

And the Numbing [6]?
Its Numbing is 0.0.

What about the Salt [6] of the same substance?
The Salt was 2.3.

And the Sour [6]?
Its Sour is 0.0.

What about the Sweet [6] of the same substance?
Its Sweet is 0.0.

What about the Umami [6] of the same substance?
Its Umami is 2.0.

What about the Umami/brothy [6] of the same substance?
Its Umami/brothy is 0.8.

And the Atringent [7]?
The Atringent was 0.0.

And the Bitter [7]?
Its Bitter is 0.0.

What about the Metallic [7] of the same substance?
Its Metallic is 0.0.

And the Mineral/Flinty [7]?
Its Mineral/Flinty is 0.8.

What about the Numbing [7] of the same substance?
The Numbing was 0.0.

What about the Salt [7] of the same substance?
The Salt was 1.9.

And the Sour [7]?
The Sour was 0.0.

And the Sweet [7]?
The Sweet was 0.0.

What about the Umami [7] of the same substance?
The Umami was 0.9.

What about the Umami/brothy [7] of the same substance?
Its Umami/brothy is 0.1.

What about the Atringent [8] of the same substance?
Its Atringent is 0.0.

What about the Bitter [8] of the same substance?
Its Bitter is 0.0.

What about the Metallic [8] of the same substance?
Its Metallic is 0.0.

And the Mineral/Flinty [8]?
Its Mineral/Flinty is 0.0.

And the Numbing [8]?
Its Numbing is 0.0.

And the Salt [8]?
Its Salt is 1.5.

What about the Sour [8] of the same substance?
The Sour was 0.0.

And the Sweet [8]?
The Sweet was 0.0.

And the Umami [8]?
The Umami was 0.0.

And the Umami/brothy [8]?
Its Umami/brothy is 0.0.

And the Atringent [9]?
The Atringent was 0.0.

What about the Bitter [9] of the same substance?
The Bitter was 0.0.

And the Metallic [9]?
Its Metallic is 0.0.

And the Mineral/Flinty [9]?
The Mineral/Flinty was 1.0.

What about the Numbing [9] of the same substance?
Its Numbing is 0.0.

What about the Salt [9] of the same substance?
The Salt was 3.0.

And the Sour [9]?
Its Sour is 0.0.

What about the Sweet [9] of the same substance?
Its Sweet is 0.0.

What about the Umami [9] of the same substance?
Its Umami is 3.0.

And the Umami/brothy [9]?
Its Umami/brothy is 0.0.

What about the Atringent [10] of the same substance?
The Atringent was 0.0.

What about the Bitter [10] of the same substance?
Its Bitter is 0.0.

What about the Metallic [10] of the same substance?
The Metallic was 0.0.

What about the Mineral/Flinty [10] of the same substance?
Its Mineral/Flinty is 0.8.

What about the Numbing [10] of the same substance?
The Numbing was 0.0.

What about the Salt [10] of the same substance?
The Salt was 2.1.

And the Sour [10]?
The Sour was 0.0.

And the Sweet [10]?
The Sweet was 0.0.

What about the Umami [10] of the same substance?
Its Umami is 1.6.

What about the Umami/brothy [10] of the same substance?
Its Umami/brothy is 0.0.

And the Atringent [11]?
Its Atringent is 0.0.

And the Bitter [11]?
The Bitter was 0.0.

And the Metallic [11]?
The Metallic was 0.0.

And the Mineral/Flinty [11]?
Its Mineral/Flinty is 0.0.

And the Numbing [11]?
The Numbing was 0.0.

What about the Salt [11] of the same substance?
Its Salt is 1.5.

And the Sour [11]?
The Sour was 0.0.

And the Sweet [11]?
The Sweet was 0.0.

And the Umami [11]?
Its Umami is 0.5.

What about the Umami/brothy [11] of the same substance?
The Umami/brothy was 0.0.
